Measured values taken from patent publication US20070087978A1, “Method of Controlling Animal Pests” (priority 1999, published 2007).

Key:
[1] = tested on: white flies; test: Control of white flies on poinsettia; format: in vivo
Text: It was compared to untreated plants or plants treated with the commercial insecticides Bifenthrin, Neem Oil or Acephate.

[2] = tested on: two spotted spider mite, Tetranychus urticae; test: Spider mite control on greenhouse-grown potted miniature roses; format: in vivo; settings: rate 0.4 oz. per 10 gallons
Text: Mites are a serious pest of plants grown throughout the world. […] It was compared to untreated control plants or plants treated with the commercial miticide, Avermectin, (Avid) at 0.4 oz. Per 10 gallons. There were six replicate plants per treatment. Adult and nymph spider mites were counted on three areas of each plant (upper, middle, lower). The sum of these three measurements is presented.

[3] = tested on: Spider Mite; format: in vivo; settings: 0.4 ounces per 10 gallons
Experimental: Another experiment was conducted on Marigolds in 6-inch pots. […] It was compared to untreated controls, the commercial miticide Avermectin (Avid, Merck) at 0.4 ounces per 10 gallons, and the commercial Neem-based insecticide Triact 90 at 10.0 mL per liter. There were 6 replications. Plant samples of 5 leaves were taken randomly from upper to lower plant areas.

[4] = tested on: nematode Aphielenchoides frageria; test: Nematode trial on Anemone vitfolia; format: in vivo; settings: repeated measure ANOVA and Kruskal-Wallis ANOVA
Text: In another trial, no control of the nematode Aphielenchoides […] on Anemone vitfolia was found as to nematode count when measured by repeated measure analysis of variance (ANOVA) and non-[…] for either KT-19827 or Avermectin. […] The symptomatic leaf analysis was done at the end of the 12 week trial period, during which 6 sprays were applied at 2 week intervals. ANOVA was the analytical measurement methodology.

[5] = tested on: Erwinia Amylovora; test: KT-19827 compared with an SAR on pear with Erwinia; format: in vivo
Text: Systemic Activator Resistance (SAR) materials affect the treated plant so it resists outbreaks of disease over longer periods of time. KT-19827 was compared with a leading commercial SAR called Bion or Actiguard (Acibenszolar-S-Methyl by Novaritis) against Erwinia Amylovora on pear trees, variety “Butirra”. The test was for the full growing season. Efficacy against Erwinia on the trees and fruit was 98% for […], 73.6% for Bion and zero on the untreated control pear trees. Standard label rates for each product were applied as a foliar spray in an equal manner.
The study was not designed to measure the comparative quantity of pears produced on the three plots.

[6] = tested on: silverleaf whitefly, Bemista argentifolii; format: in vivo; settings: 3 days after treatment, rate 2.5 oz/10 gal. water
Experimental: In another study, twenty poinsettia plants were planted into 6.0 inch containers and were grown in a greenhouse and arranged in a completely randomized design (CRD). […] Plants were sampled before (precount) and 3 days after treatment (DAT) by randomly harvesting 10 leaves from each plant and then counting the number of live and dead whitefly nymphs.
All data were analyzed in a completely randomized design using a two-way analysis of variance (ANOVA) for the number of live whitefly nymphs and percent mortality 3 days after treatment. Percent mortality was determined by dividing the number of dead whiteflies by the total number of whiteflies (alive and dead).

[7] = tested on: Erwinia (Fireblight); settings: in vivo
Text: A series of foliar sprays was applied before, during and after bloom and later in the season as needed. […] This unexpected, unusual multiple benefit indicates a phytotherapeutic defense wherein the copper molecule, it is believed, is rendered metabolizable by the plant, thereby enhancing its own defense characteristics. The molecule of copper is rendered systemic so that its action is accomplished, most importantly, inside the treated plants. Thus a continuity of protection and a reinvigorating effect on the plant are assured, which is evidenced by the quantity and unblemished quality of the fruit.
In a replicated study with controls, 10 foliar sprays were applied between March and August at times most useful to control the disease in the course of the season's adverse weather variables which encourage Erwinia. By the time of harvest, the normal state of distress of the trees' photosynthetic activity with standard copper bactericides such as copper oxychloride or the classic Bordeau mixture was missing. The consequences of this physiology were very evident at the time of harvest quantitatively and qualitatively.

Cc1c(COC(=O)[C@@H]2[C@H](/C=C(\Cl)C(F)(F)F)C2(C)C)cccc1-c1ccccc1 (racemic) [Befenthria, Bifenthrin]
Mean Number of White Flies ([1]; 6 Days After Treatment, rate 0.1): 27.7 living whitefly immatures per leaf | Mean Number of White Flies ([1]; 10 Days After Treatment, rate 0.1): 8.7 living whitefly immatures per leaf

CC[C@H](C)[C@H]1O[C@]2(C=C[C@@H]1C)C[C@@H]1C[C@@H](C/C=C(\C)[C@@H](O[C@H]3C[C@H](OC)[C@@H](O[C@H]4C[C@H](OC)[C@@H](O)[C@H](C)O4)[C@H](C)O3)[C@@H](C)/C=C/C=C3\CO[C@@H]4[C@H](O)C(C)=C[C@@H](C(=O)O1)[C@]34O)O2 [Avermectin]
Mean Number of Adult and Nymph Mites ([2]; 6 Days After Treatment, sum of upper, middle, lower plant areas): 0b | Mean Number of Adult and Nymph Mites ([2]; 10 Days After Treatment): 0.2b | Mean Number of Adult and Nymph Mites ([2]; 16 Days After Treatment): 0.7b | mite population, Week 2 [3]: 6.2c | mite population, Week 3 [3]: 23.8c | mite population, Week 1 ([3]; samples of 5 leaves): 0.0b | Mean Number of White Flies ([1]; 6 Days After Treatment, rate 0.5): 26.8 living whitefly immatures per leaf | Mean Number of White Flies ([1]; 10 Days After Treatment, rate 0.5): 44.5 living whitefly immatures per leaf | control as to nematode count [4]: no control

CSC(=O)c1cccc2nnsc12 [Bion, Acibenszolar-S-Methyl]
packets of harvested pears showing evidence of disease ([5]; at harvest): 17 out of 238 | Efficacy against Erwinia on the trees and fruit ([5]; pear variety Butirra, full growing season, standard label rates, foliar spray): 73.6%

CCOP(=S)(OCC)Oc1nc(Cl)c(Cl)cc1Cl [Chlorpyrifos, chlorpyrifos]
Live Whitefly Nymphs (3 DAT) [6]: 143.0bc | % Mortality ([6]; dead / total whiteflies): 34.0ab %

tannate complex of picro cupric ammonium formate [KT-19827]
damage to tender tissue (blooms) [7]: without damage to tender blooms
